Experimental findings from patent EP3070175A1, “TEST FOR DETERMINING SUSCEPTIBILITY OR RESISTANCE TO POLYMYXINS IN ENTEROBACTERIACEAE” (Université de Fribourg, priority 2015, dated 2016) are described below.

Some results are limits rather than exact numbers.

One assay deals with S. marcescens. The assay can be described thus: MIC determination, broth microdilution in Cation-Adjusted Mueller-Hinton broth (CLSI). In kind it is cell-based, Serratia marcescens. As to conditions: strain Smar. As to the method: (§1) Determination of MIC values were performed using the reference technique (broth microdilution in Cation-Adjusted Mueller-Hinton broth) according to the CLSI guidelines. Polymyxin B and colistin (Sigma-Aldrich, Saint-Louis) were tested over a range dilution from 0.12 to 128 µg/ml and 5.10^5 CFU/ml of bacteria in each well was used. Following the EUCAST breakpoints (http://www.eucast.org/), strains with a colistin MICs of ≤ 2 µg/ml were categorized as susceptible, although those with MICs of > 2 µg/ml were resistant.
(§2) All experiments were repeated in triplicate.

The next assay relates to M. morganii. The experiment in a line: Polymyxin test: colorimetric detection of growth (glucose metabolization, phenol red) in presence of colistin sulphate. Conditions: strain Mmor; colistin sulphate 3.75 mg/L final; visual colour change, up to 4 h at 37°C. In kind it is cell-based. Further details: key: +, yellow; -, orange. On the procedure: (§3) Each inoculum was prepared by mixing 1 öse (10 µl) of a fresh culture of the tested bacteria in 5 ml of sterile NaCl 0.85% (at a density of 3 Mac Farland, i.e. about 10^9 CFU/ml).
(§4) 250 ml of reactive medium was prepared by mixing the compounds hereafter: • a broth powder of a non selective growth medium for bacteria, the Cation-Adjusted Mueller-Hinton broth (MHB-CA) : 6.25 g • a colour indicator, the phenol red : 0.0125 g • sterile distilled water 225 ml • sterile D (+)-glucose (10 %) anhydrous (sterilization by filtration) : 25 ml
(§5) The pH of the final reactive medium was adjusted to 6.6 and 6.7 with HCl 1M.
(§6) Colistin or polymyxin B was added or not at the concentration of 5 mg/L in the reactive medium. Standard colistin sulphate and polymyxin B were from Sigma Aldrich (Saint-Louis, France). Those antibiotic molecule powders were kept at 4°C before their use, whereas polymyxin dilutions were kept at -20°C.
(§7) For each strain, two wells of a plastic sterile plate with 96 shaped wells were inoculated in parallel with and without polymyxin (colistin sulphate or polymyxin B) in order to compare their colour change.
(§8) Plastic sterile plates were from Sarstedt (Nümbrecht, Germany). The tray may be prepared as follows : • 1. 150 µl of reactive medium colistin free (obtained in 1.) in the first line • 2. 150 µl of reactive medium with 5 mg/l of colistin sulphate in the second line (final concentration = 3.75 mg/l) • 3. 50 µl of NaCl alone in the first column (one well colistin-free and one well with colistin sulphate) (medium control) • 4. 50 µl of the bacterial suspension (obtained in 2.) for the control strains and for every strain in the other column (one well colistin-free and one well with colistin)
(§9) After mixing of the bacterial suspension to the reactive medium by pipetting up and down, the final concentration of bacteria was 2.5.10^8 CFU/ml in each well and the final selective concentration of colistin or polymyxin B in the well with polymyxin was 3.75 mg/L.
(§10) The results of the tests were recorded at 10 min (checking for no spontaneous colour change in the well) and then every hour for a maximum of 4 hours by visual inspection. No colour change of the well with colistin sulphate or polymyxin B indicated susceptibility to colistin sulphate or polymyxin B and negativity of those tests. On the contrary, a colour change (orange to yellow) indicates the positivity of the test meaning growth capability (related to glucose metabolism) in presence of colistin sulphate or polymyxin B, i.e. resistance to colistin sulphate or polymyxin B.
as §2

The test system of another assay is H. alvei. The assay is described as above. The class given is cell-based. Further details: key: +, yellow; -, orange. As to conditions: strain ER; colistin sulphate 3.75 mg/L final; visual colour change, up to 4 h at 37°C. On the procedure: as §3, §4, §5, §6, §7, §8, §9, §10, §2
A further assay relates to P. mirabilis. The assay can be described thus: MIC determination, broth microdilution in Cation-Adjusted Mueller-Hinton broth (CLSI). In kind it is cell-based, Proteus mirabilis. Conditions: strain Pmir. On the procedure:
as §1, §2

Take colistin sulphate: the Colistin resistance entry in the assay on S. marcescens (EUCAST breakpoints) and in the assay on P. mirabilis (EUCAST breakpoints) was “+ (those with MICs of > 2 µg/ml were resistant)” throughout. Moreover, the “Colistin MIC” value in the assay on S. marcescens (Natural resistance) and in the assay on P. mirabilis (Natural resistance) was greater than 128 mg/L each time. In addition, the “Results of the method of the invention” value in the assay on M. morganii and in the assay on H. alvei was “+” in each case.
